According to patent US4578489A (priority 1982, dated 1986):
Read-outs that look alike come from different tables or passages of the source.

Tests used:
Chaetomium globosum = assay: Minimum inhibitory concentration against fungi, agar incorporation test, strain S; type: cell-based; conditions: malt extract/agar
Description: (§1) The invention is carried out using the known agar incorporation test in the following fungi:
(§2) in a malt extract/agar (Merck). Inhibition is effected by adding sufficient of each of the various compounds to give final concentrations in the agar of 2, 5, 10, 50 and 100 mg/liter. The concentrations (mg/liters) required to inhibit the growth of the fungi (starting from traces of fungi added dropwise) are illustrated in Table 3.

Chlorella vulgaris = assay: Action against algae: Chlorella vulgaris; type: cell-based; set-up: key: --: no growth on the agar, 3 ppm have destroyed the algae in 6 hours; conditions: 3 mg/liter; for Growth on the agar (algae-destroying action): 6 hours exposure, 14 days incubation; for Growth in the medium (growth inhibition): 14 days
Description: Cultures of Chlorella vulgaris which had been grown for 14 days in algae nutrient media are diluted in the ratio 1/200 in the algae nutrient medium. Each of the compounds listed in Table 1 is then added in such an amount as to give a final concentration of 3 mg/liter. After incubating for 6 hours, 10 μl of each culture are withdrawn and added dropwise to algae/agar in order to determine the destructive action. After the cultures have incubated for 14 days under illumination (14 hours of light and 10 hours of darkness, alternately), the growth in the algae medium (determination of growth inhibition) and on the algae/agar (determination of algae-destroying action) is assessed visually.

Enterobacter aerogenes = assay: Minimum inhibitory concentration against bacteria, strain C; type: cell-based; conditions: 24 hours at 30° C.; tested at 100 and 300 mg/liter
Description: (§3) Overnight cultures, grown in Caso peptone bouillon (Merck) of the various strains of bacteria: (A) Proteus vulgaris, (B) Pseudomonas aeruginosa, (C) Enterobacter aerogenes, (D) Serratia marcencens, (E) Alcaligenes denitrificans and (F) Bacillus subtilis are each diluted in a ratio of 1/1000 in saline solution. Sufficient of the suspensions is put into Caso peptone bouillon to dilute the bacteria again in the ratio of 1/1000. Each of the compounds listed in Table 1 is then added in amounts of 100 and 300 mg/liter. After being incubated for 24 hours at 30° C. in a shaking waterbath, the turbidity of the samples is evaluated.

Aspergillus niger = assay: Minimum inhibitory concentration against fungi, agar incorporation test, strain K; type: cell-based; conditions: malt extract/agar
Description: as §1, §2

Serratia marcencens = assay: Minimum inhibitory concentration against bacteria, strain D; type: cell-based; conditions: 24 hours at 30° C.; tested at 100 and 300 mg/liter
Description: as §3

Aureobasidium pullulans = assay: Minimum inhibitory concentration against fungi, agar incorporation test, strain R; type: cell-based; conditions: malt extract/agar
Description: as §1
(R) Aureobasidium pullulans
as §2

[1] = tested on: Cladosporium cladosporioides; assay: Minimum inhibitory concentration against fungi, agar incorporation test, strain O; type: cell-based; conditions: malt extract/agar
Description: as §1
(O) Cladosporium cladosporioides
as §2

[2] = tested on: Alcaligenes denitrificans; assay: Minimum inhibitory concentration against bacteria, strain E; type: cell-based; conditions: 24 hours at 30° C.; tested at 100 and 300 mg/liter
Description: as §3

Aspergillus phoenicis = assay: Minimum inhibitory concentration against fungi, agar incorporation test, strain L; type: cell-based; conditions: malt extract/agar
Description: as §1
(L) Aspergillus phoenicis
as §2

Pseudomonas aeruginosa = assay: Minimum inhibitory concentration against bacteria, strain B; type: cell-based; conditions: 24 hours at 30° C.; tested at 100 and 300 mg/liter
Description: as §3

Penicillium funiculosum = assay: Minimum inhibitory concentration against fungi, agar incorporation test, strain M; type: cell-based; conditions: malt extract/agar
Description: as §1
(M) Penicillium funiculosum
as §2

Endomyces geotrichum = assay: Minimum inhibitory concentration against fungi, agar incorporation test, strain Q; type: cell-based; conditions: malt extract/agar
Description: as §1, §2

Alternaria alternata = assay: Minimum inhibitory concentration against fungi, agar incorporation test, strain N; type: cell-based; conditions: malt extract/agar
Description: as §1, §2

Proteus vulgaris = assay: Minimum inhibitory concentration against bacteria, strain A; type: cell-based; conditions: 24 hours at 30° C.; tested at 100 and 300 mg/liter
Description: as §3

Candida albicans = assay: Minimum inhibitory concentration against fungi, agar incorporation test, strain P; type: cell-based; conditions: malt extract/agar
Description: as §1, §2

Bacillus subtilis = assay: Minimum inhibitory concentration against bacteria, strain F; type: cell-based; conditions: 24 hours at 30° C.; tested at 100 and 300 mg/liter
Description: as §3

Artemia salina = assay: Action against Artemia salina nauplii; type: in vivo; set-up: key: 0: no change; 1: slight change; 1-2: animals are attacked; 2: animals are strongly attacked; 2-3: animals are nearly all dead; 3: animals are all dead
Description: The eggs, which are available commercially, are caused to hatch by vigorous aeration. When 2-3 days old, the nauplii are exposed to the products at various concentrations (concentrations tested: 2.5; 1; 0.5 and 0.25 mg/liter) in synthetic seawater, and are observed over a prolonged period of time.

[3] = tested on: mixed culture of bacteria; type: cell-based; set-up: key: +: growth, no destruction; (+): growth less than that of control (>10 colonies), slight destruction; (-): slight growth (1-10 colonies); -: no growth, destruction

## CCCCCCCCCCCCC(=O)NCCC[N+](C)(C)O.CCC[CH2][Sn-]([Cl])([Cl])([CH2]CCC)[CH2]CCC [Example 29, (C12 H25 CO)NH(CH2)3 N(OH)(CH3)2 / Tributyldichloro]
Chaetomium globosum
  MIC against fungi, strain S: ≤ 5 µg/mL
Chlorella vulgaris
  Growth on the agar (algae-destroying action): --
  Growth in the medium (growth inhibition): --
Enterobacter aerogenes
  MIC against bacteria, strain C: > 300 µg/mL
Aspergillus niger
  MIC against fungi, strain K: ≤ 5 µg/mL
Serratia marcencens
  MIC against bacteria, strain D: > 300 µg/mL
Aureobasidium pullulans
  MIC against fungi, strain R: ≤ 5 µg/mL
[1]
  MIC against fungi, strain O: ≤ 5 µg/mL
[2]
  MIC against bacteria, strain E: 300 µg/mL
Aspergillus phoenicis
  MIC against fungi, strain L: ≤ 5 µg/mL
Pseudomonas aeruginosa
  MIC against bacteria, strain B: 100 µg/mL
Penicillium funiculosum
  MIC against fungi, strain M: 10 µg/mL
Endomyces geotrichum
  MIC against fungi, strain Q: 10 µg/mL
Alternaria alternata
  MIC against fungi, strain N: ≤ 5 µg/mL
Proteus vulgaris
  MIC against bacteria, strain A: 100 µg/mL
Candida albicans
  MIC against fungi, strain P: ≤ 5 µg/mL
Bacillus subtilis
  MIC against bacteria, strain F: 100 µg/mL

## CCCCCCCCCCCCCC[N+](CCO)(CCO)Cc1ccccc1.CCC[CH2][Sn-]([Cl])([Cl])([CH2]CCC)[CH2]CCC [Example 24, Di-hydroxyethyl-benzyl-tetradecyl / Tributyldichloro]
Chaetomium globosum
  MIC against fungi, strain S: 2 µg/mL
Chlorella vulgaris
  Growth on the agar (algae-destroying action): --
  Growth in the medium (growth inhibition): --
Enterobacter aerogenes
  MIC against bacteria, strain C: 100 µg/mL
Aspergillus niger
  MIC against fungi, strain K: 5 µg/mL
Artemia salina; 0,5 mg/l, 6 hours
  Action against Artemia salina: 1-2
Artemia salina; 0,5 mg/l, 24 hours
  Action against Artemia salina: 2-3
Artemia salina; 0,5 mg/l, 48 hours
  Action against Artemia salina: 3
Artemia salina; 0,25 mg/l, 6 hours
  Action against Artemia salina: 0-1
Artemia salina; 0,25 mg/l, 24 hours
  Action against Artemia salina: 2
Artemia salina; 0,25 mg/l, 48 hours
  Action against Artemia salina: 2-3
Artemia salina; 1 mg/l, 6 hours
  Action against Artemia salina: 2
Artemia salina; 1 mg/l, 24 hours
  Action against Artemia salina: 3
Artemia salina; 1 mg/l, 48 hours
  Action against Artemia salina: 3
Artemia salina; 2,5 mg/l, 6 hours
  Action against Artemia salina: 2-3
Artemia salina; 2,5 mg/l, 24 hours
  Action against Artemia salina: 3
Artemia salina; 2,5 mg/l, 48 hours
  Action against Artemia salina: 3
Serratia marcencens
  MIC against bacteria, strain D: 100 µg/mL
Aureobasidium pullulans
  MIC against fungi, strain R: 2 µg/mL
[3]; 5 mg/l, culture diluted 1/1000 in Tyrode
  Growth (destruction of a mixed culture of bacteria): +
[3]; 5 mg/l, culture diluted 1/10000 in Tyrode
  Growth (destruction of a mixed culture of bacteria): +
[3]; 10 mg/l, culture diluted 1/1000 in Tyrode
  Growth (destruction of a mixed culture of bacteria): +
[3]; 10 mg/l, culture diluted 1/10000 in Tyrode
  Growth (destruction of a mixed culture of bacteria): +
[3]; 30 mg/l, culture diluted 1/1000 in Tyrode
  Growth (destruction of a mixed culture of bacteria): +
[3]; 30 mg/l, culture diluted 1/10000 in Tyrode
  Growth (destruction of a mixed culture of bacteria): +
[3]; 60 mg/l, culture diluted 1/1000 in Tyrode
  Growth (destruction of a mixed culture of bacteria): +
[3]; 60 mg/l, culture diluted 1/10000 in Tyrode
  Growth (destruction of a mixed culture of bacteria): (+) (growth less than that of control (>10 colonies), slight destruction)
[3]; 100 mg/l, culture diluted 1/1000 in Tyrode
  Growth (destruction of a mixed culture of bacteria): +
[3]; 100 mg/l, culture diluted 1/10000 in Tyrode
  Growth (destruction of a mixed culture of bacteria): -
[1]
  MIC against fungi, strain O: 2 µg/mL
[2]
  MIC against bacteria, strain E: 100 µg/mL
Aspergillus phoenicis
  MIC against fungi, strain L: 5 µg/mL
Pseudomonas aeruginosa
  MIC against bacteria, strain B: 100 µg/mL
Penicillium funiculosum
  MIC against fungi, strain M: 5 µg/mL
Endomyces geotrichum
  MIC against fungi, strain Q: 5 µg/mL
Alternaria alternata
  MIC against fungi, strain N: 5 µg/mL
Proteus vulgaris
  MIC against bacteria, strain A: 100 µg/mL
Candida albicans
  MIC against fungi, strain P: 5 µg/mL
Bacillus subtilis
  MIC against bacteria, strain F: 100 µg/mL

## (CH3)2 N(OH)C16 H37 / Tributyldichloro [Example 15]
Chaetomium globosum
  MIC against fungi, strain S: 2 µg/mL
Chlorella vulgaris
  Growth on the agar (algae-destroying action): --
  Growth in the medium (growth inhibition): --
Enterobacter aerogenes
  MIC against bacteria, strain C: > 300 µg/mL
Aspergillus niger
  MIC against fungi, strain K: 2 µg/mL
Serratia marcencens
  MIC against bacteria, strain D: > 300 µg/mL
Aureobasidium pullulans
  MIC against fungi, strain R: 2 µg/mL
[1]
  MIC against fungi, strain O: 2 µg/mL
[2]
  MIC against bacteria, strain E: 300 µg/mL
Aspergillus phoenicis
  MIC against fungi, strain L: 2 µg/mL
Pseudomonas aeruginosa
  MIC against bacteria, strain B: 100 µg/mL
Penicillium funiculosum
  MIC against fungi, strain M: 5 µg/mL
Endomyces geotrichum
  MIC against fungi, strain Q: 10 µg/mL
Alternaria alternata
  MIC against fungi, strain N: 2 µg/mL
Proteus vulgaris
  MIC against bacteria, strain A: 100 µg/mL
Candida albicans
  MIC against fungi, strain P: 5 µg/mL
Bacillus subtilis
  MIC against bacteria, strain F: 100 µg/mL

## CCC[CH2][Sn-]([Cl])([Cl])([CH2]CCC)[CH2]CCC.CCC[CH2][Sn-]([Cl])([Cl])([CH2]CCC)[CH2]CCC.C[N+](C)(C)CCCCCC[N+](C)(C)C [Example 23, (CH3)3 N(CH2)6 N(CH3)3 / Tributyldichloro]
Chaetomium globosum
  MIC against fungi, strain S: ≤ 5 µg/mL
Chlorella vulgaris
  Growth on the agar (algae-destroying action): --
  Growth in the medium (growth inhibition): --
Enterobacter aerogenes
  MIC against bacteria, strain C: 300 µg/mL
Aspergillus niger
  MIC against fungi, strain K: 10 µg/mL
Serratia marcencens
  MIC against bacteria, strain D: > 300 µg/mL
Aureobasidium pullulans
  MIC against fungi, strain R: ≤ 5 µg/mL
[1]
  MIC against fungi, strain O: ≤ 5 µg/mL
[2]
  MIC against bacteria, strain E: 300 µg/mL
Aspergillus phoenicis
  MIC against fungi, strain L: 10 µg/mL
Pseudomonas aeruginosa
  MIC against bacteria, strain B: 100 µg/mL
Penicillium funiculosum
  MIC against fungi, strain M: 10 µg/mL
Endomyces geotrichum
  MIC against fungi, strain Q: 10 µg/mL
Alternaria alternata
  MIC against fungi, strain N: ≤ 5 µg/mL
Proteus vulgaris
  MIC against bacteria, strain A: 100 µg/mL
Candida albicans
  MIC against fungi, strain P: ≤ 5 µg/mL
Bacillus subtilis
  MIC against bacteria, strain F: 100 µg/mL

## CCCCCCCCCCCC[N+](C)(C)C.CCC[CH2][Sn-]([Cl])([Cl])([CH2]CCC)[CH2]CCC [Example 16, (CH3)3 NC12 H25 / Tributyldichloro]
Chaetomium globosum
  MIC against fungi, strain S: 2 µg/mL
Chlorella vulgaris
  Growth on the agar (algae-destroying action): --
  Growth in the medium (growth inhibition): --
Enterobacter aerogenes
  MIC against bacteria, strain C: 100 µg/mL
Aspergillus niger
  MIC against fungi, strain K: 2 µg/mL
Serratia marcencens
  MIC against bacteria, strain D: 100 µg/mL
Aureobasidium pullulans
  MIC against fungi, strain R: 2 µg/mL
[1]
  MIC against fungi, strain O: 2 µg/mL
[2]
  MIC against bacteria, strain E: 100 µg/mL
Aspergillus phoenicis
  MIC against fungi, strain L: 2 µg/mL
Pseudomonas aeruginosa
  MIC against bacteria, strain B: 100 µg/mL
Penicillium funiculosum
  MIC against fungi, strain M: 5 µg/mL
Endomyces geotrichum
  MIC against fungi, strain Q: 50 µg/mL
Alternaria alternata
  MIC against fungi, strain N: 2 µg/mL
Proteus vulgaris
  MIC against bacteria, strain A: 100 µg/mL
Candida albicans
  MIC against fungi, strain P: 5 µg/mL
Bacillus subtilis
  MIC against bacteria, strain F: 100 µg/mL
